The text below walks through data of patent US5990328A, “Process for the preparation of 4-amino-Δ4-3-ketosteroids via 4-nitro-Δ4-3-ketosteroids” (priority 1999, dated 1999).

Type in all cases: biochemical
Experiment [1] concerns the target T1, monkey testicular C17-20 lyase (Macaca fascicularis, UniProt Q2XVA1).
T1 construct: microsomal preparations of the enzyme from rat or cynomolgus monkey testicular tissue; from tissue; host or cells: cynomolgus monkey testicular tissue, microsomes
T1 sequence (Q2XVA1 1-508): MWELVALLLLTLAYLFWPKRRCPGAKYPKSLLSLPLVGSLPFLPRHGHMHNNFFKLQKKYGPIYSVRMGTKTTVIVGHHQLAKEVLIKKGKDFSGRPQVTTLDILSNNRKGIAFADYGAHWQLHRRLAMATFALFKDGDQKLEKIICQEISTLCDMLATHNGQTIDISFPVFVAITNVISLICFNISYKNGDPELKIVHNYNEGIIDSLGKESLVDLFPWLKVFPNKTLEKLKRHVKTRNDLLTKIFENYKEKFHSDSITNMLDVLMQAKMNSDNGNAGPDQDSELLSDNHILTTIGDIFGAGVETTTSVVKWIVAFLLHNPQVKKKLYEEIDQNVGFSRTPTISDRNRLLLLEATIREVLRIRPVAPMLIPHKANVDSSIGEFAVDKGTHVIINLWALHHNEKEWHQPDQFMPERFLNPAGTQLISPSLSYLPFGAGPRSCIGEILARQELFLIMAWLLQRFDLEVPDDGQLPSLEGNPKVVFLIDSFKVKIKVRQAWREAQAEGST
Kind of experiment: inhibition of cynomolgus monkey testicular C17-20 lyase (microsomes), with or without preincubation. Conditions: for inhibition at 0.1 µM / inhibition at 1 µM: cynomolgus monkey testicular lyase; for inhibition at 0.1 µM: concentration 0.1 μM; for inhibition at 1 µM: concentration 1 μM. The protocol: (§1) The in vitro enzymatic inhibitory activity of the present compounds as inhibitors of steroid C17-20 lyase was established using microsomal preparations of the enzyme from rat or cynomolgus monkey testicular tissue. Microsomes were isolated from cynomolgus monkey or rat testicular tissue. The compound to be tested was dissolved in dimethyl sulfoxide and diluted in 0.05M potassium phosphate buffer, (pH 7.4 for cynomolgus monkey lyase activity and pH 7.2 for rat lyase activity) to give the desired concentrations of test compound. The final assay concentration of DMSO was 0.1% (v/v). Assays contained an NADPH regenerating system comprised of […], 5 mM glucose-6-phosphate, 1 IU/mL glucose-6-phosphate dehydrogenase and microsomal protein in a total volume of 0.2 mL.
For determination of time dependent C17-20 lyase inactivation, the test compound was incubated with 20 to 62 μg/mL microsomal protein, 0.05 M potassium phosphate buffer, pH 7.4, and the NADPH regenerating system described above at 34° C. for 0 to 40 minutes. Aliquots of 180 μL were then removed and assayed for enzyme activity. Each aliquot was added to [7-^3 H]-17α-hydroxypregnenolone (11.2 mCi/mmole; 0.2 μCi per assay) plus unlabeled 17α-hydroxypregnenolone to give a total substrate concentration of 0.3 μM per assay and subsequently incubated for 6 minutes at 34° C. For determination of reversible inhibition by the test compound, the reaction was initiated by the addition of substrate and inhibitor (or DMSO in buffer for controls) simultaneously to the other assay components. The substrate used for cynomolgus monkey lyase was 7-^3 H-17α-hydroxypregnenolone, which yielded a final concentration of 0.3 μM substrate. […] The complete assay was incubated at 34° C. for 6 minutes for both rat and monkey lyase.
Each assay was terminated by addition of 5 mL of chloroform:methanol (2:1). Carrier steroid (2.5 μg each) representing substrates and products and 0.8 mL of distilled, deionized water were then added to each assay. Carrier steroids for the lyase assays were 17α-hydroxy-pregnenolone,dehydroepiandrosterone, and androst-5-ene-3β,17β-diol (cynomolgus monkey lyase assays) or 17α-hydroxyprogesterone, androstenedione, and testosterone (rat lyase assays). Testosterone, dihydrotestosterone, and 3,17-androstanediol were added to the 5α-reductase assays as carrier steroids. Radiolabeled and unlabeled steroid were extracted by the method of Moore and Wilson (Methods in Enzymol., eds. O'Malley, B. W. and Hardlan, J. G. 36, 1975, pp. 466-473). The organic phase containing the steroids was evaporated using nitrogen gas. For lyase assays, the residues dissolved in 18% tetrahydrofuran (v/v) in hexane. For 5α-reductase assays, the dried steroid residues were dissolved in 3% (v/v) isopropanol in hexane. the steroids were then separated by normal phase HPLC on a LiCrosorb® DIOL derivatized silica gel column (10 μm; 4×250 mm) with a 3% to 7.5% isopropanol in hexane gradient, followed by isocratic conditions of […] isopropanol in hexane. Radioactivity in the steroid peaks was measured using a Radiomatic® Model HS or Model A515 Flo-One detector for both lyase and 5α-reductase assays.
The enzyme activity for each assay was calculated from the percent conversion of substrate to products, and the results were expressed as percent inhibition of control. The data from these experiments were fitted into the appropriate two parameter model incorporating six concentrations of inhibitor to determine an IC50 value. […] When the compounds were tested using the above procedures with cynomolgus monkey testicular lyase, the following results were obtained: […]

Experiment [2] addresses T2, rat testicular C17-20 lyase (Rattus norvegicus, UniProt P11715).
T2 construct: microsomal preparations of the enzyme from rat or cynomolgus monkey testicular tissue; from tissue; host or cells: rat testicular tissue, microsomes
T2 sequence (P11715 1-507): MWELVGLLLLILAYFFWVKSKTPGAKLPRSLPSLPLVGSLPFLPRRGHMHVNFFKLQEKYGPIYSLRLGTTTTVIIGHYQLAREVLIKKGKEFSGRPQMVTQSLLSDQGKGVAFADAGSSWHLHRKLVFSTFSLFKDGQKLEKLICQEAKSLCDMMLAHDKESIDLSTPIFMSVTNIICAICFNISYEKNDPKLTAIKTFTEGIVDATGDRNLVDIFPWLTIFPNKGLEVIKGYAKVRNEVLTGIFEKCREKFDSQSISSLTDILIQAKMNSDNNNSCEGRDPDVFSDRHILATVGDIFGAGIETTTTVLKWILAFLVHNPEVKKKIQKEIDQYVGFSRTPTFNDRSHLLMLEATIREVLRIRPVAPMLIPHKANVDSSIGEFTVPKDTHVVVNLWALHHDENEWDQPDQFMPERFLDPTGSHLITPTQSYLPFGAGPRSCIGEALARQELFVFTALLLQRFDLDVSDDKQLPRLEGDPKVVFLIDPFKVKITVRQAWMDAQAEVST
Kind of experiment: inhibition of rat testicular C17-20 lyase (microsomes). The protocol:
as §1, with “mL. […]” for “mL.”
(§2) Each assay was terminated by addition of 5 mL of chloroform:methanol (2:1). […] Radioactivity in the steroid peaks was measured using a Radiomatic® Model HS or Model A515 Flo-One detector for both lyase and 5α-reductase assays.
(§3) The enzyme activity for each assay was calculated from the percent conversion of substrate to products, and the results were expressed as percent inhibition of control. […]

The target in experiment [3] is T3, prostatic monkey 5α-reductase (Macaca fascicularis, UniProt Q28892).
T3 construct: microsomes were isolated from cynomolgus monkey prostate tissue; from tissue; host or cells: cynomolgus monkey prostate tissue, microsomes
T3 sequence (Q28892 1-254): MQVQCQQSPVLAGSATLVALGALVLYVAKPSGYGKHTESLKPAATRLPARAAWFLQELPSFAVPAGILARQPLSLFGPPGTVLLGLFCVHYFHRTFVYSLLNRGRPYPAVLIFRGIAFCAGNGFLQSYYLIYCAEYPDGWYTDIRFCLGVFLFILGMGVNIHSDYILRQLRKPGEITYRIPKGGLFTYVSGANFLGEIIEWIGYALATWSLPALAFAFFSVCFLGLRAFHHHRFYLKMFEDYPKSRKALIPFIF
Kind of experiment: inhibition of cynomolgus monkey prostatic 5α-reductase (microsomes). The protocol: The activity of the present compounds as inhibitors of steroid 5α-reductase was determined using microsomal preparations of the 5α-reductase enzyme from laboratory animal prostate tissue. Specifically, microsomes were isolated from cynomolgus monkey prostate tissue. Protein concentration of the microsomal preparations was determined prior to use of the samples. […] Background radioactivity was determined from assays containing all components except enzyme. […]
as §2, §3

[4] abbreviates: preincubation time 40 (minutes).

Turning to `C[C@]12CC[C@H]3[C@@H](CCC4=C([N+](=O)[O-])C(=O)CC[C@@]43C)[C@@H]1CC[C@@H]2OC1CC1` [17β-cyclopropyloxy-4-nitroandrost-4-en-3-one], in experiment [1] (preincubation time 0 (minutes)), testing at 0.1 µM gave an inhibition of 36% and the inhibition at 1 µM was 78%. Further, in experiment [1] (setting [4]), the inhibition at 0.1 µM amounted to 79% and at 1 µM the inhibition was 95%.

As to `C[C@H](CO)[C@H]1CC[C@H]2[C@@H]3CCC4=C([N+](=O)[O-])C(=O)CC[C@]4(C)[C@H]3CC[C@]12C` [(20S)-20-Hydroxymethyl-4-nitropregn-4-en-3-one], the IC50 in experiment [2] (rat testicular microsomes, substrate 0.1 μM 17α-hydroxyprogesterone, pH 7.2, 34° C.) was 86 nM; in experiment [3] it was 17 nM; in experiment [1] (cynomolgus monkey testicular microsomes, substrate 0.3 μM 17α-hydroxypregnenolone, 34° C.), 41 nM.

With `C[C@H](CS)[C@H]1CC[C@H]2[C@@H]3CCC4=C([N+](=O)[O-])C(=O)CC[C@]4(C)[C@H]3CC[C@]12C` [(20S)-20-mercaptomethyl-4-nitropregn-4-en-3-one], the inhibition at 0.1 µM in experiment [1] (preincubation time 0 (minutes)) amounted to 0%; in experiment [1] (setting [4]) it was 26%. The figures for the inhibition at 1 µM in experiment [1] (preincubation time 0 (minutes)) and in experiment [1] (setting [4]) were 69% and 93%, respectively.

On to `CC(=O)[C@@]1(O)CC[C@H]2[C@@H]3CCC4=CC(=O)CC[C@]4(C)[C@H]3CC[C@@]21C` [[1,2-^3 H]-17α-hydroxyprogesterone, reference compound], for which the Km in experiment [2] (substrate Km, rat lyase activity) came out at 0.095 µM.
